Counter-ions that a name gives are not always drawn.
What was measured:
[1] = target: T1, Dipeptidylpeptidase IV, Human Placenta (Homo sapiens, UniProt P27487); assay: Active inhibition DPP IV assay (DPP IV-Glo Protease Assay Kit, chemical luminescent); type: biochemical; conditions: chemiluminescence, two parallel treatments
T1 construct: Dipeptidylpeptidase IV, Human Placenta (cat. 317630) of Calbiochem company; purchased Calbiochem 317630; host or cells: human placenta (tissue-derived natural enzyme)
Procedure: IC50 is determined by a NovoStar ELIASA (BMG Co. German).
According to the manual of the kit, this invention inspected the amount of the each reagent in the experimental, corresponding amount of DPPIV enzyme and chemiluminescence detection methods.

normal ICR mice = assay: Preliminary evaluation of hypoglycemic activity: effects on glucose tolerance in normal ICR mice; type: in vivo; conditions: oral 0.3, 1, 3, 10 mg/kg, serum glucose
Procedure: Effects on glucose tolerance in normal ICR mice of examples 15 and 16 were determined. Hypoglycemic activities in vivo were preliminary evaluated. Preparation procedure: drugs were accurately weighed and dissolved in double-distilled water, misce bene to obtain 0.5 mg/ml suspension, then diluted into colorless and clear solutions which concentration were 0.15, 0.05 and 0.015 mg/ml. Administrated Dose: the oral doses were 0.3, 1, 3, 10 mg/kg and the volume was 20 ml/kg. […] Glucose kits was used in the determination of serum glucose levels. Take 250 μl enzyme fluid, then add 5 μl serum. Establish blank tube (by added 5 μl double-distilled) and the standard tube (by added 5 μl standard glucose solution) simultaneously, misce bene. 37° C. water bath for 20 min. To adjust to zero value with blank tube, OD(505 nm) levels were determined. Serum glucose level BG(mmol/l)=ODsample tube/ODstandard tube×5.55.

T1 sequence (P27487 whole entry): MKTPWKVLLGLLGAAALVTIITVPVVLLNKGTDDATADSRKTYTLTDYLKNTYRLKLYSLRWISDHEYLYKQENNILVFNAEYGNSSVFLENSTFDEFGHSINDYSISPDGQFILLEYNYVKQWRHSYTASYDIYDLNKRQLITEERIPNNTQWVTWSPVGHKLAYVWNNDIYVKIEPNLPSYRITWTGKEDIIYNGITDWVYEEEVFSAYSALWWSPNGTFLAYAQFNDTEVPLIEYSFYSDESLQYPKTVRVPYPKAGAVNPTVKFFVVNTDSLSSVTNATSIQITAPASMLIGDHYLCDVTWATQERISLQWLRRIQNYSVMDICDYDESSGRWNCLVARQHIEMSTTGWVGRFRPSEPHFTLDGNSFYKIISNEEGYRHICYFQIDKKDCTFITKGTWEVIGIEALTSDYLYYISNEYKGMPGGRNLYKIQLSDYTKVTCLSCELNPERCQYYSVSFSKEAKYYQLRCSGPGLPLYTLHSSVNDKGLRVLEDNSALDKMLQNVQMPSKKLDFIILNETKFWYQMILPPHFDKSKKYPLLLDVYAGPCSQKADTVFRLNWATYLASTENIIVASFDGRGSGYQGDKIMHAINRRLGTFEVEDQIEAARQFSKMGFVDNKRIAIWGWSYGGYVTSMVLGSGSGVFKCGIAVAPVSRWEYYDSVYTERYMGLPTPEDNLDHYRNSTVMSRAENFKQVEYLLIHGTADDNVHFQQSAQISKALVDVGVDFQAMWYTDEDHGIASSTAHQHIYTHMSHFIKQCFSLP

Row | IC50 [1] [nM] | SMILES | inhibitor activity of DPPIV in vivo (hypoglycemic activity, glucose tolerance) (normal ICR mice) | in vivo activity compared with positive control LAF-237 (normal ICR mice)
1 | 121 | N#CC1CCCN1C(=O)CNC1CC2CC(OC(=O)Nc3ccccc3)CC2C1 (stereo not shown) [Example 6, 5-[2-(2-cyano-pyrrolidin-1-yl)-2-oxo-ethylamino]-octahydro-pentalen-2-yl phenyl-carbamate hydrochloride] |  | 
2 | 326 | CC(C)(C)NC(=O)OC1CC2CC(NCC(=O)N3CCCC3C#N)CC2C1 (stereo not shown) [Example 8, 5-[2-(2-cyano-pyrrolidin-1-yl)-2-oxo-ethylamino]-octahydro-pentalen-2-yl tert-butyl-carbamate hydrochloride] |  | 
3 | 18.3 | CCCCC1(O)CC2CC(NCC(=O)N3CCCC3C#N)CC2C1 (stereo not shown) [Example 10, 1-[2-(5-butyl-5-hydroxy-octahydro-pentalen-2-ylamino)-acetyl]-pyrrolidine-2-carbonitrilehydrochloride] |  | 

The next lines start with the compound.

Row | SMILES | IC50 [1] [nM] | inhibitor activity of DPPIV in vivo (hypoglycemic activity, glucose tolerance) (normal ICR mice) | in vivo activity compared with positive control LAF-237 (normal ICR mice)
4 | CC(C)NC(=O)OC1CC2CC(NCC(=O)N3CCCC3C#N)CC2C1 (stereo not shown) [Example 7, 5-[2-(2-cyano-pyrrolidin-1-yl)-2-oxo-ethylamino]-octahydro-pentalen-2-yl isopropyl-carbamate hydrochloride] | 204 |  | 
5 | Cl.N#CC1CCCN1C(=O)CNC1CC2CC(=O)CC2C1 (stereo not shown) [Example 15, 1-[2-(5-oxo-octahydro-pentalen-2-ylamino)-acetyl]-pyrrolidine-2-carbonitrile hydrochloride] |  | good inhibitor activities of DPPIV in vivo | 
6 | Cl.N#CC1CCCN1C(=O)CNC1CC2CC(O)CC2C1 (stereo not shown) [Example 16, 1-(2-(5-hydroxyl-octahydro-pentalen-2-ylamino)-acetyl)pyrrolidine-2-carbonitrile hydrochloride] |  | good inhibitor activities of DPPIV in vivo | slightly better than LAF-237

Source: patent publication US20090176847A1, “Dicyclooctane Derivatives, Preparation Processes and Medical Uses Thereof” (priority 2006, published 2009)
